33 compounds from a melting point compilation (Tetko et al.; mined from patent text by program, amines drawn as free bases though some values may be those of a salt) can be followed below.

Compound `COc1ccc2cc(OCc3ccccc3)c(C(=O)O)cc2c1` registered a melting point of 177 to 179 °C.

For `COCCNC(=O)c1cccc(-c2cccc3oc(Cc4cccc(C(F)(F)F)c4)cc23)c1`, the melting point lay within 91 to 92 °C.

As for `CS(=O)(=O)c1ccc(-c2cc(=O)n(C3CCCC3)nc2-c2ccc(F)cc2)cc1`, the melting point fell in the range of 191 to 192 °C.

`COCCOc1ccc2c(C(c3cccc(NC(=O)OCc4ccccc4)c3C)C(C)[N+](=O)[O-])c[nH]c2c1` (stereo not drawn) had a melting point of 140 °C.

The compound `COc1ccccc1C=Cc1nc2c([nH]1)c(=O)n(C)c(=O)n2C` returned a melting point of over 300 °C.

For `CCn1cc(C(=O)O)c(=O)c2cc(F)c(N3CCNC(c4cccs4)C3)cc21` (stereo not drawn), the melting point was 232 to 234 °C.

For the compound `CCN(C(=O)N1CCN(c2cc(OC)cc(OC)c2)CC1)c1nc(C)c(C)nc1OC`, the melting point lay in the range of 78 to 80 °C.

`C=CCC(CC=C)C(=O)O[C@H]1C[C@H](O)C=C2C=C[C@H](C)[C@H](CC[C@@H]3C[C@@H](O)CC(=O)O3)[C@H]21` showed a melting point of 159 to 160 °C.

`Cn1cnc(S(=O)(=O)N2CCn3c(c(C(N)=O)c(Cl)c3-c3ccccc3)C2)c1` returned a melting point of 260 to 263 °C.

The compound `COc1cc2c(cc1O)CCN(c1cc(N)c3cc(OC)c(OC)cc3n1)C2` came in with a melting point of 250 to 251 °C.

Turning to `NC(N)=Nc1nc(-c2cccc(CNC(=O)C3CCCNC3)n2)cs1` (stereo not drawn), the melting point is 227 to 228 °C.

Compound `COc1cc2ncnc(N3CCN(C(=S)Nc4ccncc4)CC3)c2cc1OC` showed a melting point of 218 to 220 °C.

As to `CCCOc1cc(CCCOc2c(CC(=O)O)cccc2OC)n(Cc2ccc3ccccc3n2)n1`, the melting point lay within 97 to 98 °C.

As to `O=C1COC2CCCc3nc4ccccc4c(c32)N1` (stereo not drawn), the melting point lay in the range of 173 to 175 °C.

As for `O=Cc1c(-c2cccc(C(F)(F)F)c2)sc2ccccc12`, the melting point was in the range of 103 to 104 °C.

Take `CCCCCC(=O)Nc1ccc2ccn(CCCCCCC(=O)NS(=O)(=O)c3ccccc3)c2c1`: the melting point is 97 to 99 °C.

In turn, `COc1cccc(C(CNC(=O)Cc2c(Cl)cncc2Cl)CC(C)C)c1` (stereo not drawn) registered a melting point of 98 to 99 °C.

`C[Si](C)(C)CCCOC1CCN(c2ccc([N+](=O)[O-])cc2)C1` (stereo not drawn) came in with a melting point of 68 °C.

`Cn1ncnc1COc1cc(N)c2cnn(-c3ccccc3)c2n1`: the melting point was 164 to 166 °C.

For `ClCc1cc(I)cc(I)c1I`, the melting point is 97 to 98 °C.

Turning to `COc1ccc2c(C(=O)Nc3ccc(F)c(C(F)(F)F)c3)nsc2c1`, the melting point came out at 157 °C.

The compound `COc1cc(OC)c2c(=O)[nH]c(-c3ccc(OCCO)c(-c4ccc(S(C)(=O)=O)cc4)n3)nc2c1` gave a melting point of over 300 °C.

`Cn1cc2ccc(F)cc2c1` registered a melting point of 60 to 65 °C.

`O=c1[nH]c(-c2ccc(O)cc2)cc2ccccc12` returned a melting point of 239 to 241 °C.

As to `COc1ccc(C(=O)Nc2ccc(F)c(F)c2)cc1NS(=O)(=O)c1ccc([N+](=O)[O-])cc1`, the melting point was in the range of 234 to 236 °C.

For `C=CC[C@H]1C(=O)N(S(=O)(=O)c2cc3ccccc3s2)[C@@H]2CCN(C(=O)OCc3ccccc3)[C@H]21` (relative stereo), the melting point is 146 °C.

The compound `CC1CC(n2c(NC3CC3)nc3cc(Cl)c(Cl)cc32)C(O)C1O` (stereo not drawn) displayed a melting point of 231 to 233 °C.

In turn, `CC(C)(C)c1cc(C(C)(C)C)n(Cc2ccc(CO)cc2)n1` returned a melting point of 121 to 122 °C.

For `CCSc1ccnc2sc(C(N)=O)c(N)c12`, the melting point lay within 230 to 235 °C.

Compound `O=C(NC(Cc1c[nH]c2ccccc12)C(=O)Oc1c(F)c(F)c(F)c(F)c1F)OCc1ccccc1` (stereo not drawn) came in with a melting point of 169 to 170 °C.

The compound `COc1ccccc1[C@H](c1cccc2ccccc12)[C@@](C)(C#N)C(=O)N1CC=C(c2c[nH]c3ccccc23)CC1` registered a melting point of 229 to 231 °C.

Compound `Cc1nc2ncnn2c2c1CCN2c1c(Cl)cccc1Cl` gave a melting point of 192 to 194 °C.

Regarding `O=C(c1ccc(I)cc1)c1ccc2nc(Cl)nc(-c3cccc(Cl)c3)c2c1`, the melting point turned out to be 153 °C.
